Entries after “also recorded” stand apart in the source; their conditions may differ. Read-outs that look alike come from different tables or passages of the source. No end group written: not given here.
How the values were obtained:
[1] = molecular target: T1, PTHPTHrP receptor (Homo sapiens, UniProt Q03431); settings: cited from earlier work
T1 sequence (Q03431 27-593): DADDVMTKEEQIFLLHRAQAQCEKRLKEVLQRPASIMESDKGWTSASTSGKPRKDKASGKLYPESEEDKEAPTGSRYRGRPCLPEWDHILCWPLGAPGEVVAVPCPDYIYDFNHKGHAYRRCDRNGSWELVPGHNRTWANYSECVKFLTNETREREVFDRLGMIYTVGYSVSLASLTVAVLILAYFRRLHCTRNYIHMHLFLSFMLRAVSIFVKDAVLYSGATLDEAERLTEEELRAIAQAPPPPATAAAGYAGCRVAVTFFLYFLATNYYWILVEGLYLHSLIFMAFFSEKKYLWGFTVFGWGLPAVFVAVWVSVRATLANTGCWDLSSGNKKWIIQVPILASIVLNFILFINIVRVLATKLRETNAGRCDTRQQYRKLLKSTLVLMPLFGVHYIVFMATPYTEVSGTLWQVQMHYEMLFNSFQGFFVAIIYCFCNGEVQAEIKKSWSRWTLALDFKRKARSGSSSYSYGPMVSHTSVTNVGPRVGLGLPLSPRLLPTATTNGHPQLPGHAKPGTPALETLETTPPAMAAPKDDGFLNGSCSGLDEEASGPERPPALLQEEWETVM

[2] = tested on: cultured human keratinocytes; settings: in vitro, previously shown in U.S. Pat. Nos. 5,527,772, 5,840,690 and 6,066,618; cited from earlier work
[3] = molecular target: T1, PTHPTHrP receptor; settings: cited from earlier work; remark: listed apart in the source
[4] = tested on: mouse vaginal cells; assay: tritiated thymidine incorporation into DNA of cultured mouse vaginal epithelial cells; assay type: cell-based, SKH-1 hairless mice
Method: The vaginas from five SKH-1 hairless mice were harvested, washed, and placed in trypsin 1× overnight. From each, the vaginal epithelium was peeled and rinsed in 0.02% EDTA solution and centrifuged to isolate the cells. The cells were rinsed in media, centrifuged, and plated into a 100 mm dish atop a layer of irradiated 3T3 cells containing media as is used for keratinocytes and described above. The cells were grown and passed into 24 well plates for tritiated thymidine incorporation as described above. Cells were treated with either a placebo vehicle or with 1×10^−7 M PTH(1-34) for 24 hours. The cells were harvested and the DNA was extracted and counted using a beta liquid scintillation counter. The amount of tritiated thymidine recovered in the DNA is a measure of DNA synthesis in the cells and is synonymous with cellular proliferative activity.

[5] = molecular target: hPTH-2 receptor (Homo sapiens, UniProt P49190); settings: cited from earlier work
Chain of hPTH-2 receptor (P49190 25-550): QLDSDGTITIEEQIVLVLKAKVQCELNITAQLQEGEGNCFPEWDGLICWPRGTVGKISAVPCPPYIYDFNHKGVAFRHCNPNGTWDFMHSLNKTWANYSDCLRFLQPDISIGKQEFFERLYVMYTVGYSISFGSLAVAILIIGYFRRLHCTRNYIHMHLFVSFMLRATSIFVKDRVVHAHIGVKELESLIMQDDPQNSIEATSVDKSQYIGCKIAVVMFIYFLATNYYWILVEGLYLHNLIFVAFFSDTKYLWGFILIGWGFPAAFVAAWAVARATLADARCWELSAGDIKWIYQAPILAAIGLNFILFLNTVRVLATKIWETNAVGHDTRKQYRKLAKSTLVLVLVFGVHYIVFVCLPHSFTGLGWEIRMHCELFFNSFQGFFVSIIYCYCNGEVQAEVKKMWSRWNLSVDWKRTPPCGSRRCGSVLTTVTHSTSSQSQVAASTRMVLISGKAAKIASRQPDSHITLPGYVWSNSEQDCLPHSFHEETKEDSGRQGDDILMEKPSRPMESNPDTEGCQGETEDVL

Substance	block of inhibition of proliferation or stimulation of differentiation by hPTH(1-34), hPTHrP(1-34), or 1,25(OH)2D3 [2]	further results
hPTH(15-34) (LNSMERVEWLRKKLQDVHNF; listed as Homo sapiens)	–	block of binding of hPTH(1-34) or hPTHrP(1-34) to the PTHPTHrP receptor [1]: can block the binding
hPTH(5-34) (IQLMHNLGKHLNSMERVEWLRKKLQDVHNF; listed as Homo sapiens)	block the inhibition of proliferation or stimulation of differentiation	–
[Tyr^34]bPTH(7-34),Amide (FMHNLGKHLSSMERVEWLRKKLQDVHNY-NH2) [[Tyr^34]bPTH (7-34)NH2]	block the inhibition of proliferation or stimulation of differentiation	–
[Leu^11,D-Trp^12]hPTHrP(7-34),Amide [[Leu^11,D-Trp^12]hPTHrP(7-34)NH2]	–	antagonist function at the hPTH/PTHrP receptor [3]: highly potent antagonist
hPTH(1-34) (SVSEIQLMHNLGKHLNSMERVEWLRKKLQDVHNF; listed as Homo sapiens)	–	incorporation of tritiated thymidine into the DNA (DNA synthesis) ([4]; 1×10^−7 M for 24 hours, versus placebo vehicle, FIG. 1): increased; vaginal cell growth ([4]; conclusion from FIG. 1, mouse vaginal cells in vitro): can stimulate vaginal cell growth; also recorded: can stimulate vaginal cell-growth
[Nle^8,18,Tyr^34]bPTH(7-34),Amide (FXHNLGKHLSSXERVEWLRKKLQDVHNY; norleucine at 8,18; C-terminal amide; Bovine; VARIANT (2)..(12) Xaa = Nle) [[Nle^8,18, Tyr^34]bPTH (7-34)NH2]	block the inhibition of proliferation or stimulation of differentiation	–
bPTHrP(5-36) (HQLLHDKGKSIQDLRRRFFLHHLIAEIHTAEI; listed as Homo sapiens) [printed only in b18]	block the inhibition of proliferation or stimulation of differentiation	–
[Trp^23]hPTHrP(1-36) (AVSEHQLLHDKGKSIQDLRRRFWLHHLIAEIHTAEI; listed as Homo sapiens) [[Trp^23]hPTHrP (1-36)]	–	antagonist function at the PTH-2 receptor [5]: hPTH-2 receptor antagonist; antagonist function at the PTH-2 receptor ([5]; listed as [Trp^23]PTHrP(1-36)): particularly potent antagonist
hPTHrP(7-31) (LLHDKGKSIQDLRRRFFLHHLIAEI; listed as Homo sapiens)	block the inhibition of proliferation or stimulation of differentiation	–
hPTHrP(15-34) (IQDLRRRFFLHHLIAEIHTA; listed as Homo sapiens)	–	block of binding of hPTH(1-34) or hPTHrP(1-34) to the PTHPTHrP receptor [1]: can block the binding
hPTHrP(5-34)	block the inhibition of proliferation or stimulation of differentiation	–
hPTH(7-31) (LMHNLGKHLNSMERVEWLRKKLQDV; listed as Homo sapiens)	block the inhibition of proliferation or stimulation of differentiation	–
hPTH(5-36) (IQLMHNLGKHLNSMERVEWLRKKLQDVHNFVA; listed as Homo sapiens)	block the inhibition of proliferation or stimulation of differentiation	–
